Patent US10729643B2, “Methods for administration and methods for treating cardiovascular diseases with resiniferatoxin” (priority 2013, dated 2020)
“Also recorded” adds a separate entry of the source.

Legend:
[1] = tested on: cardiac sympathetic afferent reflex (CSAR); experiment: CSAR activation: cardiovascular and sympathetic responses to epicardial capsaicin or bradykinin; type: in vivo, rat; settings: for cardiovascular responses to acute epicardial application of capsaicin and bradykinin: sham rats
Experimental: (§1) In order to desensitize cardiac sympathetic afferents in rats, resiniferatoxin (RTX, 1 mg; Sigma Aldrich) was dissolved in 2 ml of ethanol and mixed with 18 ml of Tween in isotonic saline. RTX (50 μg/ml) was applied twice on the entire left and right ventricles with a swab just prior to coronary ligation. The dose of RTX was determined by preliminary experiments in which we found nearly complete ablation of TRPV1-expressing cardiac nerve endings on the surface of the rat heart for more than 10 weeks. Rat surgery was performed 9-11 weeks post-MI. Rats were anesthetized with urethane (800 mg/kg ip) and α-chloralose (40 mg/kg ip). Renal sympathetic nerve activity (RSNA) and cardiac sympathetic nerve activity (CSNA) were recorded for evaluating basal renal and cardiac sympathetic tone.
In another parallel set of experiments, we further confirmed the efficiency of RTX-induced TRPV1-expressing CSAR afferent ablation functionally by epicardial application of capsaicin and bradykinin (10 μg/ml) in sham+RTX rats treated with various doses (0.5 μg/ml, 5 μg/ml and 50 μg/ml) and at various time points (1 week, 4-6 weeks, 9-11 weeks and 6 months after RTX). […] Therefore, a higher dose greater than 5 μg/ml should be used for epicardial administration.
To determine activation of the CSAR, epicardial application of capsaicin and bradykinin was used to effectively stimulate the cardiac sympathetic afferents (Zahner et al. J. Physiol. 2003; 551:515-523). The time interval between capsaicin and bradykinin was about 15-20 min to allow the arterial pressure (AP), heart rate (HR) and renal sympathetic nerve activity (RSNA) to return to, and stabilize at their control levels.

[2] = tested on: sham and CHF rats (coronary artery ligation); experiment: Hemodynamic, morphological and echocardiographic measurements in sham and CHF rats; type: in vivo, rat; settings: for DAP: diastolic arterial pressure; for HR: heart rate; for HW/BW: heart weight/body weight; for LVEDP: left ventricle end-diastolic pressure; for MAP: mean arterial pressure; for SAP: systolic arterial pressure; for WLW/BW: wet lung weight/body weight
Experimental: as §1
More specifically, we examined TRPV1 protein expression in cardiac nerve endings from vehicle and RTX-treated rats using immunofluorescence. Experiments were performed on male Sprague-Dawley rats weighing […]. In brief, terminal experiments were carried out 9-11 weeks after MI in rats treated with either RTX or vehicle. These experiments were approved by the Institutional Animal Care and Use Committee of the University of Nebraska Medical Center and carried out under the guidelines of the National Institutes of Health Guide for the Care and Use of Laboratory Animals. Heart failure was produced by coronary artery ligation as described in (Wang et al., J. Appl. Physiol. 2010; 108:1365-1375; and Wang et al. 2, Am. J. Physiol. Regul. Integr. Comp. Physiol. 2012; 320:R1260-R1270). Cardiac function in all experimental animals was measured 2 and 6 weeks after MI by echocardiography (VEVO 770, Visual Sonics, Inc.) as described in (Wang et al., J. Appl. Physiol. 2010; 108:1365-1375; Wang et al. 2, Am. J. Physiol. Regul. Integr. Comp. Physiol. 2012; 320:R1260-R1270; and Wang et al. 3, J. Physiol. 2010; 588:5033-5047).
This example illustrates an effect of RTX on body weight, organ weight, and hemodynamics in sham and CHF rats.

[3] = target: T1, TRPV1-expressing cardiac afferents (Rattus norvegicus, UniProt O35433); experiment: TRPV1 immunofluorescence in cardiac nerve endings after epicardial RTX; type: in vivo
T1 construct: from tissue; host or cells: cardiac (epicardial) nerve endings of male Sprague-Dawley rats, in vivo
T1 sequence (O35433 whole entry): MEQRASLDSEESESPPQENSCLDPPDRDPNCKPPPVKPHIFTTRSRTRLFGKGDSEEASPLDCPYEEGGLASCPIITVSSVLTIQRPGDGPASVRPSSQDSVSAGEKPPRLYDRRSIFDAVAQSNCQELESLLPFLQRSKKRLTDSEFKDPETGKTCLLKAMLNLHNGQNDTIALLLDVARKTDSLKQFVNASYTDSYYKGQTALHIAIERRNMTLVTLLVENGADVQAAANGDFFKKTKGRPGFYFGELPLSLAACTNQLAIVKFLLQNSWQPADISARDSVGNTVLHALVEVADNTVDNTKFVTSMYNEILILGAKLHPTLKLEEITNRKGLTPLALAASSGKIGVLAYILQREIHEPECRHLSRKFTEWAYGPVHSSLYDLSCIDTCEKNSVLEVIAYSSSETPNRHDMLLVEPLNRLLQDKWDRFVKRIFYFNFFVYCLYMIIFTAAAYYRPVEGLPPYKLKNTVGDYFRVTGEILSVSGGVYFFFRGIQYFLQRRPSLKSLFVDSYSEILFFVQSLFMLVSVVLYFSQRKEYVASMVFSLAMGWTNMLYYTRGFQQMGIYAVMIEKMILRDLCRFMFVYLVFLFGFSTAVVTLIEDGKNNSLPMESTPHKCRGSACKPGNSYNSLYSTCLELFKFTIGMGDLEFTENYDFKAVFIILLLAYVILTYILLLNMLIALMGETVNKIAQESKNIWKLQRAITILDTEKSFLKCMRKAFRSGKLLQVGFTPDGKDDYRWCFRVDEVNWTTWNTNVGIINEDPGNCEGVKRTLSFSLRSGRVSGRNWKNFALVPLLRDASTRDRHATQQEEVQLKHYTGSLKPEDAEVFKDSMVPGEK
Experimental: as §1
More specifically, we examined TRPV1 protein expression in cardiac nerve endings from vehicle and RTX-treated rats using immunofluorescence. Experiments were performed on male Sprague-Dawley rats weighing −400 to −500 g. […] Cardiac function in all experimental animals was measured 2 and 6 weeks after MI by echocardiography (VEVO 770, Visual Sonics, Inc.) as described in (Wang et al., J. Appl. Physiol. 2010; 108:1365-1375; Wang et al. 2, Am. J. Physiol. Regul. Integr. Comp. Physiol. 2012; 320:R1260-R1270; and Wang et al. 3, J. Physiol. 2010; 588:5033-5047). […]

[4] = tested on: infarcted heart / CSAR activation; experiment: Cardiac plasma extravasation (Evans Blue area); type: in vivo, rat
Source text: This example illustrates local anti-inflammatory effects of RTX in the infarcted heart. Myocardial ischemia causes the production and release of several metabolites including bradykinin, prostaglandins and protons that stimulate cardiac sympathetic afferent nerve endings leading to increases in BP, HR and sympathetic nerve activity. As cardiac TRPV1-expressing sympathetic afferents also subserve a “dual sensory-efferent” function and release pro-inflammatory neuropeptides, we hypothesized that plasma extravasation and cardiac neuroinflammation follows myocardial ischemia. […] Inflammation in the infarct area may be due to tissue death whereas in peri-infarct and remote areas may be due to cardiac sympathetic afferent mediated neuroinflammation. This may explain why RTX prevented cardiac inflammation in non-infarct areas to a greater extent than in the infarct area.

[5] = sham and CHF rats, 9-11 weeks after epicardial RTX 50 μg/ml

C=C(C)[C@]12C[C@@H](C)[C@@]34O[C@](Cc5ccccc5)(O[C@@H]1[C@@H]3C=C(COC(=O)Cc1ccc(O)c(OC)c1)C[C@]1(O)C(=O)C(C)=C[C@@H]41)O2 [RTX, resiniferatoxin]
sham rats showing partial recovery of the cardiovascular responses to capsaicin and bradykinin ([1]; 10 weeks after epicardial RTX 5 μg/ml, preliminary experiment): 40% | duration for which CSAR was abolished ([1]; RTX 50 μg/ml applied to the surface of heart): 9-11 weeks | sensitivity to capsaicin and bradykinin ([1]; all rats, 10 weeks after epicardial RTX 50 μg/ml): still insensitive | cardiovascular responses to capsaicin and bradykinin / CSAR sensitivity at 6 months after RTX ([1]; epicardial RTX 50 μg/ml, 6 months): recovery of CSAR sensitivity; also recorded: largely recovered | duration for which cardiovascular responses to capsaicin and bradykinin were abolished ([1]; epicardial RTX 50 μg/ml, time course experiments): more than 10 weeks | bradykinin-induced CSAR activation [1, 5]: greatly attenuated | cardiovascular and sympathetic activation (MAP, HR, RSNA) in response to epicardial capsaicin [1, 5]: almost completely abolished | cardiovascular responses to acute epicardial application of capsaicin and bradykinin ([1]; 1 week after epicardial RTX 5 μg/ml): largely abolished | cardiovascular responses to acute epicardial application of capsaicin and bradykinin ([1]; 1 week after epicardial RTX 50 μ/ml): largely abolished | difference in ejection fraction or fractional shortening ([2]; 2 weeks and 6 weeks after MI, CHF+RTX vs CHF+vehicle): no significant difference | DAP ([2]; CHF + RTX (n = 25), mean ± SE): 90.8 ± 2.2 mmHg | Heart weight ([2]; CHF + RTX (n = 25), epicardial RTX 50 μg/ml at coronary ligation, 9-11 weeks post-MI, mean ± SE): 1650 ± 49 mg | HR ([2]; CHF + RTX (n = 25), mean ± SE): 348.3 ± 5.5 bpm | HW/BW ([2]; CHF + RTX (n = 25), mean ± SE): 3.8 ± 0.1 mg/g | LVEDP ([2]; CHF + RTX (n = 25), mean ± SE): 8.3 ± 0.7 mmHg | MAP ([2]; CHF + RTX (n = 25), mean ± SE): 101.3 ± 2.1 mmHg | Infarct size ([2]; CHF + RTX (n = 25), mean ± SE): 39.1 ± 1.2 % | dp/dtmax ([2]; CHF + RTX (n = 25), mean ± SE): 5446 ± 173 | dp/dtmin ([2]; CHF + RTX (n = 25), mean ± SE): −4643 ± 149 | SAP ([2]; CHF + RTX (n = 25), mean ± SE): 120.8 ± 2.3 mmHg | WLW/BW ([2]; CHF + RTX (n = 25), mean ± SE): 5.1 ± 0.2 mg/g | MI-induced cardiac dilation (LV systolic and diastolic diameters and volumes) ([2]; CHF rats, echocardiography): significantly reduced | increased LVEDP observed in CHF+vehicle rats ([2]; CHF+RTX rats): largely prevented | decreased protein expression of in myocardium ([2]; CHF+RTX rats, western blot): partially reversed | blunted dp/dtmin ([2]; CHF+RTX vs CHF+vehicle rats): significantly increased | difference in dp/dtmax at rest ([2]; CHF+RTX vs CHF+vehicle rats): no significant difference | dp/dtmax response to isoproterenol (ISO) stimulation ([2]; CHF+RTX vs CHF+vehicle rats): significantly greater | heart weight and lung weight-to-body weight ratios ([2]; CHF+RTX vs CHF+vehicle rats): significant decrease | difference in infarct size ([2]; CHF+vehicle vs CHF+RTX rats): no significant difference | ejection fraction decrease ([2]; RTX treated rats (summary)): less | Infarct size ([2]; Sham + RTX (n = 20)): 0% | DAP ([2]; Sham + RTX (n = 20), mean ± SE): 92.8 ± 3.2 mmHg | Heart weight ([2]; Sham + RTX (n = 20), epicardial RTX 50 μg/ml, 9-11 weeks, mean ± SE): 1430 ± 30 mg | HR ([2]; Sham + RTX (n = 20), mean ± SE): 362.0 ± 6.8 bpm | HW/BW ([2]; Sham + RTX (n = 20), mean ± SE): 3.3 ± 0.1 mg/g | LVEDP ([2]; Sham + RTX (n = 20), mean ± SE): 4.8 ± 0.4 mmHg | MAP ([2]; Sham + RTX (n = 20), mean ± SE): 105.0 ± 3.1 mmHg | dp/dtmax ([2]; Sham + RTX (n = 20), mean ± SE): 8601 ± 224 | dp/dtmin ([2]; Sham + RTX (n = 20), mean ± SE): −8088 ± 196 | SAP ([2]; Sham + RTX (n = 20), mean ± SE): 128.8 ± 2.8 mmHg | WLW/BW ([2]; Sham + RTX (n = 20), mean ± SE): 4.5 ± 0.1 mg/g | differences in cardiac morphological, echocardiographic or hemodynamic parameters ([2]; sham+vehicle vs sham+RTX rats): no significant differences | TRPV1 immunoreactivity in the epicardium ([3]; 1 week, 4-6 weeks and 9-11 weeks after epicardial RTX 50 μg/ml): absent | duration of nearly complete ablation of TRPV1-expressing cardiac nerve endings on the surface of the rat heart ([3]; epicardial RTX 50 μg/ml, preliminary experiments): more than 10 weeks | plasma extravasation following CSAR activation by epicardial capsaicin or bradykinin ([4]; chronic CSAR denervation by RTX): largely be abolished | cardiac plasma extravasation after MI (Evans Blue area) ([4]; epicardial RTX at the time of coronary ligation, day 1 to more than 1 week after MI): almost completely abolished
